This is an account of results in ChEMBL document CHEMBL1130673, “Hydroindenic-guanylhydrazones. Synthesis and evaluation as inotropic agents” (1998).

For test [1], the species on record is Cavia porcellus. The test can be described thus: Compound was measured for inotropic activity against isolated guinea pig atria at concentration 3 x 10e-4. The format is functional.
The species entered for test [2] is Cavia porcellus. Nature of the test: Compound was measured for inotropic activity against isolated guinea pig atria at concentration 3 x 10e-4; Negative inotropic activity. The format is functional.

Compound `CC(=O)OC[C@H]1CC[C@]2(O)CC3(CC[C@]12C)SCCCS3` registered a Reduction in test [1] of 56%.
Consider `COC(=O)/C=C/[C@H]1CC[C@]2(O)CC3(CC[C@]12C)SCCCS3`, for which the Reduction in test [1] is recorded as 85%.
For `C[C@]12CC/C(=N\N=C(N)N)C[C@@]1(O)CCC2/C=N/N=C(N)N` (stereo not given in full), the Activity result in test [2] is “Negative inotropic activity”.
With `C[C@]12CCC(OC(c3ccccc3)(c3ccccc3)c3ccccc3)C[C@@]1(O)CC[C@@H]2CO` (stereo not given in full), the Activity result in test [2] was “Negative inotropic activity”.
In the case of `C[C@]12CCC3(C[C@@]1(O)CCC2/C=N/N=C(N)N)OCCO3` (stereo not given in full), the Activity result in test [2] was “Negative inotropic activity”.
